Earlier results, collected in patent US20160007613A1, “Clonostachys rosea Inoculated Plant Materials with Fungicides and Adjuvants” (priority 2014, published 2016).

Tested on: Clonostachys rosea ACM941
Conditions: research by Sutton and Brown; in words

Compound	toxicity to Clonostachys rosea ACM941
COCC(=O)N(c1c(C)cccc1C)C(C)C(=O)OC (centres unmarked) [metalaxyl]	not metalaxyl is toxic
CN(C)C(=S)SSC(=S)N(C)C [thiram]	toxic
